From patent US9586943B2, “Bilaterally-substituted tricyclic compounds for the treatment of human immunodeficiency virus type-1 (HIV-1) infection and other diseases” (CENTRO DE INVESTIGACIÓN PRINCIPE FELIPE, priority 2013, dated 2017)
Read-outs that look alike come from different tables or passages of the source.

Assays:
[1] = target: RREc hairpin; assay: SPR binding specificity relative to control RREc hairpin; design: species or system HIV-1
Experimental: (§1) The interaction of these biphenyl and terphenyl compounds with the RRE RNA hairpin (SEQ. ID. No 1) was analysed using surface plasmon resonance (SPR) experiments(19). In addition to the RRE, two control RREc (SEQ. ID. No 2) and TARc (SEQ. ID. No 3) hairpins were also immobilised on the chips. In the RREc hairpin the internal loop forming the Rev high-affinity binding site is replaced with a G:G opposition, whereas in the TARc hairpin this loop is substituted with the HIV-1 Tat-binding UCU bulge(20). In this way, applicants could simultaneously assess the interaction of each ligand with RRE, RREc and TARc, obtaining important information about binding selectivity. In addition, the SPR methodology allows deduction of binding stoichiometries, which are likewise related to the specificity of the interaction between a ligand and a given RNA species. These are key considerations in the nucleic acid recognition field(4, 5, 14).
(§2) The Surface Plasmon Resonance (SPR) experiments were carried out at 25° C. with a Biacore T100 optical biosensor system, 4-channel streptavidin-derivatized Series S SA chips, and either 10 mM MES (pH 6.25), 150 mM NaCl, 1 mM EDTA and 0.005% P20 or 10 mM HEPES pH 7.4, 150 mM NaCl, 3 mM EDTA and 0.005% P20 aqueous solutions as mobile phases. After immobilizing approximately 300 response units (RU) of the RRE, RREc and TARc RNA hairpins on the chips, the compounds were injected during 10-minute periods at a flow rate of 20 μL/min and at concentrations generally ranging from 0.01 μM to 100.0 μM, and then allowed to dissociate for 10 more minutes. The RNA surfaces were regenerated with solutions containing 0.5 to 1 M NaCl and 10 to 100 mM NaOH, depending on the ligand.
(§3) RNA-ligand SPR equilibrium dissociation constants (Kd) were determined by fitting the sensorgrams to one-site or two-site equations:
(§4) [formula] [formula] where RU is the response in the steady-state region of the sensorgrams, C is the concentration of free compound in equilibrium with the complex, RUmax is the maximum response and RI is an offset term accounting for the bulk refractive index contribution of the sample. In these models, Kd, RUmax and RI are adjustable parameters, and the stoichiometry of each binding site was determined by comparing the fitted RUmax values with the predicted ones, calculated from the molecular weights of RNA and compound and the amount of RNA in the flow cell(32). The two-site equation was only utilized if it provided a clear curve-fitting improvement over the one-site model. The specificity of the RRE interaction was quantified by calculating the Kd(RREc)/Kd(RRE) and Kd(RRE)/Kd(TARc) ratios. All SPR experiments were double-referenced(33).

[2] = system: HIV-1 (NL4.3-Ren); assay: microbe, parasite or virus in culture; assay type: cell-based; settings: for EC50: read-out: EC50 (NL4.3-Ren)
[3] = target: RRE RNA hairpin (internal loop IIB); assay: SPR analysis of interaction with RRE RNA hairpin; assay type: binding, HIV-1
[4] = target: RRE-Rev34-50 interaction (RRE hairpin and frevp); assay: Fluorescence polarization displacement assay of the RRE-Rev34-50 interaction; assay type: binding, HIV-1
[5] = system: HIV-1 LTR promoter; assay type: cell-based
[6] = system: Escherichia coli (ATCC 53868); assay: Disk diffusion assay (Kirby-Bauer), E. coli; assay type: cell-based; settings: disk potency 20 μg, 8 mm discs, 16-18 hours at 37° C.
[7] = Cellular viability (CellTiter Glo); assay type: cell-based; settings: human, MT-2 cells; 48 h, CellTiter Glo; read-out: CC50 (celular viability)
[8] = system: Staphilococcus aureus (ATCC 35556); assay: Disk diffusion assay (Kirby-Bauer), S. aureus; assay type: cell-based; settings: disk potency 20 μg, 8 mm discs, 16-18 hours at 37° C.
[9] = target: TARc hairpin; assay: SPR binding specificity relative to control TARc hairpin; design: species or system HIV-1
Experimental: as §1, §2, §3
as §4, with “The specificity of the RRE interaction was quantified by calculating the Kd(RREc)/Kd(RRE) and Kd(RRE)/Kd(TARc) ratios.” left out

[10] = system: full-length competent HIV-1 clone; assay: microbe, parasite or virus in culture; assay type: cell-based; settings: Human immunodeficiency virus 1, MT2, 48 h, read-out: EC50 post-integration
[11] = system: MT-2 cells; assay: Cellular viability (CellTiter Glo); assay type: cell-based
[12] = system: RRE-Rev; assay: microbe, parasite or virus in culture; assay type: cell-based, HIV-1
[13] = system: RRE hairpin; assay: Two-dimensional NMR (TOCSY) titration of the RRE hairpin; assay type: binding, HIV-1; settings: D2O, pH 6.0
[14] = Human immunodeficiency virus 1, 48 h
[15] = read-out: IC50 (RRE-Rev 50% inhibitory concentration), fluorescence polarization, 25° C., 60 nM RRE and 10 nM frevp
[16] = fluorescence anisotropy, read-out: IC50 (RRE-Rev34-50 inhibition)
[17] = 25° C., pH 7.4, high affinity site when two-site model, footnote d compounds: ligand range 0.1-25 μM, read-out: Kd(RRE)

Compound | EC50 [2, 14] | IC50 [4, 15] | inhibition of HIV-1 LTR-mediated transcription (in words) [5] | disk susceptibility of E. coli (diameter of the inhibition area) [6] | CC50 at 48 h [7] | disk susceptibility of S. aureus (diameter of the inhibition area) [8] | inhibition of HIV-1 replication (in words) [2] | EC50 [10] | cellular toxicity (in words) [11] | RRE interaction by NMR chemical shift perturbation (in words) [13] | other results
COc1cc(CCN)c(-c2ccc(-c3cc(CCN)c(O)c(CCN)c3)c(OC)c2)c(CCN)c1 [IIS-358, 2″,3,5,6″-Tetrakis(2-aminoethyl)-2′,4″-dimethoxy-(1,1′:4′,1″-terphenyl)-4-ol chlorhydrate] | > 100 µM | 808 ± 462 µM | inhibited transcription of the reporter gene | inactive | > 100 µM | inactive |  |  |  |  | Kd(RREc)/Kd(RRE) ([1]; 25° C., pH 6.3): 1.9; Kd ([3]; 25° C., pH 6.3, high affinity site when two-site model, JB-399 and IIS-530: ligand range 0.1-25 μM, read-out: Kd(RRE)): 13 ± 9 µM; Kd(TARc)/Kd(RRE) ([9]; 25° C., pH 6.3): 6.0
COc1cc(CCN)c(-c2cc(C)c(-c3cc(CCN)c(OCc4ccccc4)c(CCN)c3)c(C)c2)c(CCN)c1 [IIS-375, 2,2′,2″,2′″-[4″-(Benzyloxy)-4-methoxy-3′,5′-dimethyl-(1,1′:4′,1″-terphenyl)-2,3″,5″,6-tetrayl]tetraethanamine chlorhydrate] | 24.8 µM | 32.2 ± 2.3 µM |  |  | > 100 µM |  | inhibited HIV-1 replication | 21.4 µM | no cellular toxicity |  | 
COc1cc(CCN)c(-c2cc(C)c(-c3cc(CCN)c(O)c(CCN)c3)c(C)c2)c(CCN)c1 [IIS-420, 2″,3,5,6″-Tetrakis(2-aminoethyl)-4″-methoxy-2′,6′-dimethyl-(1,1′:4′,1″-terphenyl)-4-ol chlorhydrate] | 3.4 µM |  | inhibited transcription of the reporter gene |  | > 100 µM |  | inhibited HIV-1 replication | 5 µM | no cellular toxicity | greatest RNA chemical shift variations | IC50 [4, 16]: 6.8 µM; IC50 ([12]; Human immunodeficiency virus 1, read-out: IC50 (RRE-Rev), pCMV-Rev 20 ng, pDM628 500 ng/well): 10.4 ± 2.4 µM; IC50 ([12]; Human immunodeficiency virus 1, read-out: IC50 (RRE-Rev), pCMV-Rev 200 ng, pDM628 500 ng/well): 21.4 ± 6.3 µM; IC50 ([12]; Human immunodeficiency virus 1, read-out: IC50 (RRE-Rev), pCMV-Rev 500 ng, pDM628 500 ng/well): 50 to 100 µM; IC50 ([12]; Human immunodeficiency virus 1, read-out: IC50 (Rev-mediated transport of RRE-containing RNA), depends on concentration of Rev-encoding plasmid): 10.4 to 21.4 µM
CCc1cc(-c2c(CCN)cc(OC)cc2CCN)ccc1-c1cc(CCN)c(OCc2ccccc2)c(CCN)c1 [IIS-758, 2,2′,2″,2′″-[4″-(Benzyloxy)-3′-ethyl-4-methoxy-(1,1′:4′,1″-terphenyl)-2,3″,5″,6-tetrayl]tetraethanamine chlorhydrate] | 32.3 µM | 78.1 ± 6.5 µM | inhibited transcription of the reporter gene |  | > 100 µM |  | inhibited HIV-1 replication | 17 µM | no cellular toxicity |  | Kd(RREc)/Kd(RRE) ([1]; 25° C., pH 7.4): 1.3; Kd [3, 17]: 16.7 ± 1.6 µM; Kd(TARc)/Kd(RRE) ([9]; 25° C., pH 7.4): 2.0
CCc1cc(-c2c(CCN)cc(OC)cc2CCN)cc(CC)c1-c1cc(CCN)c(OCc2ccccc2)c(CCN)c1 [IIS-771, 2,2′,2″,2′″-(4″-(benzyloxy)-3′,5′-diethyl-4-methoxy-[1,1′:4′,1″-terphenyl]-2,3″,5″,6-tetrayl)tetraethanamine] | 42.6 µM | 77.2 ± 15.5 µM |  |  | > 100 µM |  | inhibited HIV-1 replication | > 100 µM | no cellular toxicity |  | Kd(RREc)/Kd(RRE) ([1]; 25° C., pH 7.4): 1.0; Kd [3, 17]: 17.6 ± 1.8 µM; Kd(TARc)/Kd(RRE) ([9]; 25° C., pH 7.4): 1.7
NCCc1cc(-c2cc(CCN)c(O)c(CCN)c2)cc(CCN)c1O [JB-391, 3,3′,5,5′-tetrakis(2-aminoethyl)-[1,1′-biphenyl]-4,4′-diol] | 50 to 100 µM |  |  | inactive | > 100 µM | inactive |  | > 100 µM |  | unspecific | IC50 [4, 16]: 7.7 µM
NC[C@@H]1O[C@H](O[C@H]2[C@@H](O)[C@H](O[C@@H]3[C@@H](O)[C@H](N)C[C@H](N)[C@H]3O[C@H]3O[C@H](CN)[C@@H](O)[C@H](O)[C@H]3N)O[C@@H]2CO)[C@H](N)[C@@H](O)[C@@H]1O [Neomycin B, neomycin B, reference compound] |  |  |  | 15.2 ± 2.1 |  | 12.8 ± 1.9 |  |  |  | unspecific | Kd(RREc)/Kd(RRE) [1]: 0.9; EC50 ([2]; HIV-1 infection assay, 48 h post-infection): > 100 µM; Kd ([3]; higher affinity site, read-out: equilibrium dissociation constant Kd (RRE)): 2.4 ± 1.1 µM; Ki ([4]; calculated from IC50, assuming one ligand molecule displaces frevp, read-out: Ki inhibition constant): 2 ± 0.2 µM; CC50 ([11]; 48 h, CellTiter Glo, read-out: CC50 (celular viability)): > 100 µM; Kd(TARc)/Kd(RRE) [9]: 2.3
